Data as given in paper PMC11090936, “The leukemia inhibitory factor regulates fibroblast growth factor receptor 4 transcription in gastric cancer” (Cellular Oncology, 2023).

Biological target: T1, LIFR (leukemia inhibitory factor receptor) (Homo sapiens, UniProt P42702)
T1 construct: with LIF
Assay: cell-free AlphaScreen, inhibition of LIF/LIFR binding

T1 sequence (P42702 45-1097): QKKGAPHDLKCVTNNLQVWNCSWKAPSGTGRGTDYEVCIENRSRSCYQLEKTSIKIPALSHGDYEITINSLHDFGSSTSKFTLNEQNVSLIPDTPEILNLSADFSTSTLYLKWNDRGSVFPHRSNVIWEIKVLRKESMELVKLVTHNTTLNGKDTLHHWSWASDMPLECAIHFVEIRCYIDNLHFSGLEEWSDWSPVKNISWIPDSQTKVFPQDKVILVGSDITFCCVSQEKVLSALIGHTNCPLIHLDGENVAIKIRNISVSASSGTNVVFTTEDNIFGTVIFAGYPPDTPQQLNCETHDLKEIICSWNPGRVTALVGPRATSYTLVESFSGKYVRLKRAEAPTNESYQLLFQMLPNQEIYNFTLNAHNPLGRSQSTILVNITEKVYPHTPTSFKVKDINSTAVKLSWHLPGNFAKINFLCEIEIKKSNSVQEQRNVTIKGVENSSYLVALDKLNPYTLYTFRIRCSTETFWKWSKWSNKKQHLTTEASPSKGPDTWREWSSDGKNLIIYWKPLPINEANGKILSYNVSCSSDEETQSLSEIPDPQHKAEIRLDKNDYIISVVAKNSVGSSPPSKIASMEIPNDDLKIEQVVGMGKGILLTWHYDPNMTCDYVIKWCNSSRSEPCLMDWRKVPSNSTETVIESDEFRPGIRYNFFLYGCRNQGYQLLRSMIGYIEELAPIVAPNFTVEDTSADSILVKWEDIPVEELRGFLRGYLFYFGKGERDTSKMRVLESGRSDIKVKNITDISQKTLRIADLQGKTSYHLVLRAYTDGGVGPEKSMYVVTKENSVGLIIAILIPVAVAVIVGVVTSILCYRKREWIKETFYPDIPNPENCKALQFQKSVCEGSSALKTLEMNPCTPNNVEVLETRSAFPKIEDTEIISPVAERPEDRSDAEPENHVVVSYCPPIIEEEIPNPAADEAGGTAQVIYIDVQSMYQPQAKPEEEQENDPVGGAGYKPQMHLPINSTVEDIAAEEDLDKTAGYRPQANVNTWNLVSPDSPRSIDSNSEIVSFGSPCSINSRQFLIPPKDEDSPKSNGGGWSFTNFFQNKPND
T1 sequence (P15018 23-202 partner): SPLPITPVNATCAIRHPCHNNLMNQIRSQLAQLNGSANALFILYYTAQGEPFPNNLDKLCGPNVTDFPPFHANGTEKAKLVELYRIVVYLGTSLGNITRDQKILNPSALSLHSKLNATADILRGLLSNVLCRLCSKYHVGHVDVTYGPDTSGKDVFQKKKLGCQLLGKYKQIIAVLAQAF

Q: With `C=CC[C@]1(O)CCC2C3CCC4=CC(=O)CCC4=C3[C@@H](c3ccc(-c4ccccc4)cc3)C[C@@]21C` (stereo partly shown) [LRI-201] as the compound, how does the IC50 read?
A: Its IC50 is 21.9 ± 2.16 µM.
